Publication PMC10794345, “Analysis of vascular disruption in zebrafish embryos as an endpoint to predict developmental toxicity” (Archives of Toxicology, 2023)
Entries after “also recorded” stand apart in the source; their conditions may differ. Read-outs that look alike come from different tables or passages of the source.

Tests used:
[1] = Lethality of zebrafish embryos at 96 hpf; type: in vivo, zebrafish (D. rerio); settings: OBI/WIK wild-type, zebrafish, in vivo, other: immersion of embryos in exposure media, 3–96 hpf exposure; ± 95% confidence intervals
Experimental: (§1) Fertilized and normally developed embryos were selected according to Kimmel et al. ([1995]) with a dissection microscope (Olympus SZx7-ILLT) at 1 hpf. Depending on experiment, exposure was started within 2–3 h post-fertilization (16–128 cell stages) or at 24 hpf. Exposure was conducted in rectangular 96-well microplates (Clear Polystyrene, flat bottom, Uniplate, Whatman, GE Healthcare) covered by a lid with a test volume of 400 µL of exposure media. For each replicate one embryo per well and 16 wells per concentration were assessed. Experiments were performed with at least two replicates on independent days and breeding.
(§2) Concentration–response curves were fitted for lethality, heart rate, morphological features as previously described (Teixidó et al. [2019], [2022]). The assessment of lethality and morphological features was based on the percentage of embryos affected. Therefore, morphological endpoints were dichotomized, i.e. feature metrics were converted to the percentage of embryos deviating from controls. An embryo was considered to deviate when it was outside 1.5-fold of the standard deviation range of the mean of the control group. The control mean was determined by pooling control embryos across all experiments (n = 160) (available at git.ufz.de). For heart rate and angiogenesis (number of ISVs) the analysis was based on normalized values, i.e. for each experiment the values of the treatment were divided by the control value. The experiments were designed to calculate effect concentrations based on modelled curve fits. Different concentrations were used in at least two independent replicates, with means of each replicate based on the exposure of 16 different embryos per concentrations. Effect concentration were only modeled when three conditions were met. (1) The Tukey trend test based on the R package "tukeytrend" (Schaarschmidt et al. [2022]) was deriving a maximum p-value of 0.05. (2) The Akaike information criterion (AIC) for the log-logistic model was lower than the AIC for a linear model with slope 0 (lower p values for the letter would indicate that there is no trend in the data). (3) We calculated effect concentrations only if at least 30% of embryos for that endpoint were affected in at least one exposure concentration of (for normalized data) a reduction or increase by 30% was observed.

[2] = tested on: zebrafish embryos (wild-type strain OBI/WIK); assay: Lethality of zebrafish embryos at 96 hpf; type: in vivo, zebrafish (D. rerio); settings: embryos exposed from 24 hpf, compared to exposure from 3 hpf
Experimental: as §1, §2

[3] = tested on: early life stage zebrafish; settings: ref Tal et al. [2014]; read-out: EC50 for decreased ISV length; cited from earlier work
[4] = tested on: zebrafish embryos (wild-type strain OBI/WIK); assay: ISV inhibition (angiogenesis) by video subtraction in wildtype zebrafish embryos; type: in vivo, zebrafish (D. rerio); settings: for IC50: Danio rerio, ± 95% confidence intervals, read-out: IC50 of ISV inhibition
Experimental: A wild-type adult zebrafish strain (D. rerio, strain OBI/WIK, generation F3), originating from an in-house cross of zebrafish strains UFZ-OBI and WIK, was used for all experiments. The Tg(kdr:EGFP) strain was kindly provided by the University of Jena. Fish were fed twice daily with dry food (SDS-400, Special Diets Services, Essex England) and once daily with Artemia sp. […] Spawning trays were inserted 4–6 h before the end of the light cycle. The following day, spawning was initiated by the onset of light and eggs were collected within 1 h. Exposure in all experiment was ceased at 96 hpf.
Exposure was conducted in rectangular 96-well microplates (Clear Polystyrene, flat bottom, Uniplate, Whatman, GE Healthcare) covered by a lid with a test volume of 400 µL of exposure media. For each replicate one embryo per well and 16 wells per concentration were assessed. Experiments were performed with at least two replicates on independent days and breeding.
To determine the number of ISVs in the trunk region, high-resolution images of 96 hpf-old zebrafish embryos were recorded using a Leica DM6B-Z microscope (Leica, Wetzlar, Germany) attached to the VAST imaging system, and a camera (Leica DFC9000 sCMOS, objective: HC APO L U-V-I 20x/0.50 WATER UV). A series of 20 images with a frame rate of 20 images per second and a 2 × 2 pixel binning was recorded in autofocus mode for each embryo.
A series of MATLAB scripts (Supplement File ‘Workflow 3.m’ and ‘Workflow 4.m’) was used to convert the image series into a video and to visualize the blood vessel by applying a video subtraction approach (Figure SI1). Briefly, each video frame was subtracted from the average image of the whole image sequence and converted to a binary image by applying a Gaussian blur (σ = 5) and a threshold of 0.025 to obtain optimal contrast in binary images. Subsequently, the sum of all binary images was calculated. Due to movement of the blood cells the subtraction approach removed all parts from the image which were not moving resulting in an image of the blood vessels. This binary image of the blood vessel network in the zebrafish embryo tail was then processed with the FishInspector annotation software (version 1.70). […] The number of ISVs was obtained by application of a KNIME workflow to FishInspector annotation files. Subsequently concentration–response analysis was conducted using a KNIME workflow. The coefficient of variation (CV) of controls was calculated for both the subtraction and the fluorescence-based method by dividing the standard deviation of individual embryos with the control mean: CVControl=SD/Mean.
as §2, with “The” for “Concentration–response curves were fitted for lethality, heart rate, morphological features as previously described (Teixidó et al. [2019], [2022]). The”, “(1) The Tukey trend test based on the R package "tukeytrend" (Schaarschmidt et al. [2022]) was deriving a maximum p-value of 0.05.” left out, “data).” for “data). (3) We calculated effect concentrations only if at least 30% of embryos for that endpoint were affected in at least one exposure concentration of (for normalized data) a reduction or increase by 30% was observed.”

[5] = tested on: zebrafish embryos (wild-type strain OBI/WIK); assay: Morphological features and heart rate by automated imaging (VAST/FishInspector) at 96 hpf; type: in vivo, zebrafish (D. rerio); settings: 96 hpf; listed as VPA
Experimental: Automated imaging of zebrafish developmental phenotypes was conducted with the VAST BioImager (Union Biometrica, Gees, Belgium (Pardo-Martin et al. [2010]; Pulak [2016])) equipped with a large particle sampler (LP sampler, Union Biometrica). Lateral and dorsoventral images were obtained at 10 µm resolution at 96 hpf. Prior to imaging, all embryos were anesthetized by adding 20 µl tricaine solution ([…] tricaine, TRIS 26 mM, pH 7.5 ± 0.1) to each well of the microplate. Images were processed with an amended version (1.70, available via https://codebase.helmholtz.cloud/ufz/tb3-cite/biotox/FishInspector) of the FishInspector imaging software (Teixidó et al. [2019]). The FishInspector software allows to automatically annotate morphological features including body contour, eye, lower mouth tip, pericard, otoliths, notochord, swimbladder, and yolk and to calculate diverse metrics such as feature length, size, curvature indices, or angle between feature-connecting lines. In contrast to the previously published version, FishInspector 1.70 detects morphological features based on a deep learning approach using the Matlab Neural Network Toolbox and Matlab Image Processing Toolbox (Mathworks, Natick, […]). In addition, metric calculation was included into the software, and meta information such as test compound, exposure window or test concentration was associated to each image using a microplate layout file. To facilitate training of the models, two additional programs were generated in Matlab including FishTrainer 0.9 (for training of semantic segmentation models of structural features) and FishClassificator 0.9 (for training of position classes to be used in automated flipping of images) available via same repository as FishInspector software. For image training, image size was adjusted to 450 × 300 pixel to reduce computing time. This resolution was sufficient to detect the selected features (data not shown). For training of the deep learning models, approximately 3000 previously annotated images (Teixidó et al. [2022]) were used. The automated annotations were corrected by the user in the event that they were not adequately detecting visible structures. User-bias was avoided by a blinded assessment of images.
FishInspector provided a JSON file corresponding to each image file containing the coordinates of all features and the applied smoothing factor. All images and videos used for this publication can be found at the BioImage Archive S-BIAD954 (https://www.ebi.ac.uk/biostudies/bioimages/studies/S-BIAD954). For each image, a csv file was generated containing calculated metrics. The software automatically provides a summary table containing metrics r of individual embryos. […] The analyzed file includes endpoint names based on the FishInspector software. […]

Row | Compound | LC50 [1] [nM] | Mortality (in words) [2] | EC50 [3] [nM] | IC50 ([4]; 3–96 hpf exposure) [nM] | IC50 ([4]; 24–96 hpf exposure) [nM] | Morphological malformations (in words) [5] | Effect on ISV formation (in words) ([4]; tested concentration range up to 800 µM, negative control, listed as VPA)
1 | Clc1ccc(Nc2nnc(Cc3ccncc3)c3ccccc23)cc1 [PTK787] | 680 ± 510 | no | 170 | 90 ± 40 | 140 ± 30 |  | 
2 | CCCC(CCC)C(=O)O [Valproic acid] |  |  |  |  |  | craniofacial malformations were observed; also recorded: changes in head and jaw structures | No effect; also recorded: no inhibition of ISVs formation was observed
